Converted amounts (≈) assume the structure as drawn.
Key:
in vivo = format: in vivo, mice (ddy strain); settings: mouse, in vivo, ip; read-out: (WBC4000/ED50)* = (WBC4000/ED50)/[(WBC4000/ED50) of MMC1]
Procedure: (§1) Certain compounds were selected from Compounds I. The following Table 4 indicates anti-tumour activity against Sarcoma 180 solid tumour (ED50), acute toxicity (LD50) and effects on the peripheral leucocytes (WBC4000) of each compound.
(4) Effect upon the number of the peripheral leucocytes:
Sarcoma 180 solid tumour cells (5×10^6) were subcutaneously implanted into the right armpit of each mouse (body weight 20±2 g) of a group consisting of 5 male mice (ddy strain). 24 hours after implantation,a test compound was abdominally administered to each mouse. 4 days later, blood (each 0.02 ml) was collected from the suborbital plexus vein of each tumour-carrying mouse. The collected sample of blood was dispersed in 9.98 ml of Cell-kit Seven solution. One drop of saponin solution was added to the sample to dissolve erythrocytes and then a microcell counter was used to measure the number of leucocytes. On graph paper, the number of leucocytes was indicated on the y-axis by an arithmetic scale and the does of the test compound was indicated on the x-axis by a logarithmic scale.
The relationship between the number of peripheral leucocytes and the dosage of the test compound was plotted to obtain WBC4000 viz. the dosage corresponding to […] per mm^3 (about half of the number of leucocytes of normal mice).

P388 Leukemia = assay: Effect upon Leukemia P 388; format: in vivo, mouse (CDF1); settings: single i.p., 33 days
Procedure: (5) Effect upon Leukemia P 388:
Ascites cells were collected from P388 Leukemia-carrying mouse (DBA/2) 7 days after the implantation. The number of the cells of P388 Leukemia in the sample was counted. A physiological solution of sodium chloride was sterilized and used to prepare a cell suspension containing 5×10^6 tumour cells per ml. On each occasion, 0.2 ml of the suspension containing 1×10^6 cells was implanted into the abdominal cavity of each mouse (CDF1; body weight 20~25 g). 24 hours after implantation, the test compound was once given to each mouse of a test group consisting of 6 mice by abdominal injection.
The activity of the test samples was determined by the ratio of the average survival days of the treated animals to the average survival days of untreated animals viz. ILS % (Increased Life Span).

Sarcoma 180 solid tumour = assay: animal or person; format: in vivo, mice (ddy strain); settings: Mus musculus, Sarcoma-180, ip, 168 h, read-out: ED50 ip
Source text: as §1
(1) Effect against Sarcoma 180 solid tumour:
5×10^6 cells of Sarcoma 180 solid tumour cells were abdominally implanted into male mice of ddy strain. 7 days after this, ascites cells were sampled. The cells were washed once with a sterilized physiological solution of sodium chloride and were used to prepare a cell suspension containing 5×10^7 cells per ml. On each occasion, 0.1 ml of the cell suspension was subcutaneously implanted into the right armpit of a male mouse (ddy strain; body weight 20±2 g). 24 hours after the implantation of the tumour cells, the test compound which was dissolved in a physiological solution of sodium chloride with or without addition of Tween 80 was abdominally administered to each mouse of a group consisting of 5 animals at a does of 0.1-0.2 ml. The anti-tumour activity was determined as follows:
7 days after the implantation, the major axis (a) and the minor axis (b) of the tumour were measured to calculate a value of "a×b^2 /2" which corresponds to the volume of the tumour. The anti-tumour activity was expressed by T/C viz. the ratio of the volume of the tumours (T) of the group of animals administered with the test compound to the corresponding volume of tumours (C) of the untreated animals.
(2) Determination of ED50 :
The term ED50 denotes the administered amount needed for reducing the volume of Sarcoma 180 solid tumours in the animals to 50% on the basis of the corresponding volume of Sarcoma 180 solid tumours in control (untreated) animals.
On graph paper, T/C was indicated by an arithmetic scale on the longitudinal axis and the administered amount of test compound was indicated by a logarithmic scale on the lateral axis.

Acute toxicity = format: in vivo, mice (ddy); settings: mouse, in vivo, ip; for LD50 at 336 h: ddy mice, single i.p., 14 days, Behren Korber's method; for selectivity ratio: read-out: (C.I.)* = (LD50/ED50)/[(LD50/ED50) of MMC1]
Procedure: as §1
Each animal of the test group consisting of 5 ddy mice was once administered (i.p.) with a test compound. […] The LD50 was determined by Behren Korber's method.

[1] = tested on: Proteus vulgaris ATCC 6897; assay: Minimum inhibitory concentration, agar dilution method, PV; format: cell-based; settings: Proteus vulgaris, ATCC6897, pH 7, read-out: minimum inhibitory concentration, PV
Source text: (§2) Certain Compounds I were selected. Table 3 indicates their anti-bacterial activities in terms of their minimum inhibitory concentration (μg/ml), determined by the agar dilution method effected at a pH of 7.0. In this table, the microorganisms used are abbreviated as follows:
PV: Proteus vulgaris ATCC 6897

[2] = tested on: Klebsiella pneumoniae ATCC 10031; assay: microbe, parasite or virus in culture; format: cell-based; settings: ATCC10031, pH 7, read-out: minimum inhibitory concentration, KP
Source text: Certain Compounds I were selected. […] In this table, the microorganisms used are abbreviated as follows:
KP: Klebsiella pneumoniae ATCC 10031

[3] = tested on: Streptococcus faecalis ATCC 10541; assay: Minimum inhibitory concentration, agar dilution method, SF; format: cell-based; settings: Enterococcus faecalis, ATCC10541, pH 7, read-out: minimum inhibitory concentration, SF
Source text: as §2
SF: Streptococcus faecalis ATCC 10541

[4] = tested on: Staphylococcus aureus ATCC 6583P; assay: Minimum inhibitory concentration, agar dilution method, SA; format: cell-based; settings: Staphylococcus aureus, ATCC6583P, pH 7, read-out: minimum inhibitory concentration, SA
Source text: as §2
SA: Staphylococcus aureus ATCC 6583P

Solubility in water = format: physicochemical; settings: water
Escherichia coli ATCC 26 = assay: Minimum inhibitory concentration, agar dilution method, EC; format: cell-based; settings: Escherichia coli, ATCC26, pH 7, read-out: minimum inhibitory concentration, EC
Source text: as §2
EC: Escherichia coli ATCC 26

Compound | selectivity ratio (in vivo) | ILS* (ratio of ILS % to that of mitomycin C) (P388 Leukemia; dose 3.13 mg/kg) | ED50 (Sarcoma 180 solid tumour) | LD50 at 336 h (Acute toxicity) | selectivity ratio (Acute toxicity) | MIC [1] | MIC [2] | MIC [3] | MIC [4] | ILS* (ratio of ILS % to that of mitomycin C) (P388 Leukemia; dose 20.3 mg/kg) | solubility (Solubility in water) | MIC (Escherichia coli ATCC 26) | ILS* (ratio of ILS % to that of mitomycin C) (P388 Leukemia; dose 25 mg/kg)
CO[C@@]12[C@H](COC(N)=O)C3=C(C(=O)C(C)=C(NCCSSCCC(=O)NC[C@H](O)c4ccc(O)c(O)c4)C3=O)N1C[C@@H]1N[C@@H]12 [Compound 32] | 2.39 | > 1.44 | 7.1 mg/kg | 30 mg/kg | 1.56 | – | – | – | – | – | – | – | –
CO[C@@]12[C@H](COC(N)=O)C3=C(C(=O)C(C)=C(NCCSSCCC(N)=O)C3=O)N1C[C@@H]1N[C@@H]12 [Compound 21, 7-N-[2-[(2-carbamoylethyl)dithio]ethyl]mitomycin C] | 1.01 | – | 11.8 mg/kg | 18.8 mg/kg | 0.68 | 5 µg/mL (≈ 10 µM) | 1.3 µg/mL (≈ 2.61 µM) | 1.3 µg/mL (≈ 2.61 µM) | 0.63 µg/mL (≈ 1.27 µM) | – | – | – | –
CO[C@@]12[C@H](COC(N)=O)C3=C(C(=O)C(C)=C(NCCSSCCNC(=O)c4cc(=O)[nH]c(=O)[nH]4)C3=O)N1C[C@@H]1N[C@@H]12 [Compound 14, 7-N-[2-[(2-orotamidoethyl)dithio]ethyl]mitomycin C] | 1.2 | – | 11.5 mg/kg | 45 mg/kg | 1.68 | – | – | – | – | > 2.60 | – | – | –
CO[C@@]12[C@H](COC(N)=O)C3=C(C(=O)C(C)=C(NCCSSCCCCNC(=O)CC[C@H](N)C(=O)O)C3=O)N1C[C@@H]1N[C@@H]12 [Compound 5, 7-N-[2-[[4-(N^5 -L-glutamino)butyl]dithio]ethyl]mitomycin C] | 3.21 | – | 8.4 mg/kg | 30 mg/kg | 1.66 | 1.6 µg/mL (≈ 2.55 µM) | 0.8 µg/mL (≈ 1.28 µM) | 1.6 µg/mL (≈ 2.55 µM) | 1.6 µg/mL (≈ 2.55 µM) | – | > 20 mg/mL | – | –
CO[C@@]12[C@H](COC(N)=O)C3=C(C(=O)C(C)=C(NCCSSCCNC(=O)C[C@H](N)C(=O)O)C3=O)N1C[C@@H]1N[C@@H]12 [Compound 6, 7-N-[2-[[2-(N^4 -L-asparagino)ethyl]dithio]ethyl]mitomycin C] | 2.38 | – | 5 mg/kg | 26.3 mg/kg | 1.81 | 0.8 µg/mL (≈ 1.37 µM) | 0.8 µg/mL (≈ 1.37 µM) | 3.1 µg/mL (≈ 5.3 µM) | 0.8 µg/mL (≈ 1.37 µM) | – | > 20 mg/mL | > 50 µg/mL | –
CC(=O)NCCSSCCNC1=C(C)C(=O)C2=C(C1=O)[C@H](COC(N)=O)[C@@]1(O)[C@@H]3[C@H](CN21)N3C (stereo partly drawn) [Compound 17, 7-N-[2-[(2-acetamidoethyl)dithio]ethyl]mitomycin D] | 2.6 | – | 7.3 mg/kg | 60 mg/kg | 2.73 | > 50 µg/mL | – | 25 µg/mL (≈ 48.9 µM) | > 50 µg/mL | – | – | – | > 1.78

— patent US5103018A, “Mitomycin derivatives” (Kyowa Hakko Kogyo Kabushiki Kaisha, priority 1986, dated 1992)
